Common to all, as to assay type: cell-based
In one experiment the target is T1, human A2A receptor (Homo sapiens, UniProt P29274).
T1 construct: expressed in transfected cells; host or cells: HEK293
The experiment in a line: cAMP HTRF functional assay, recombinant HEK293 cells expressing human A2A receptor, agonist NECA. The protocol: (§1) The functional activities of human A2A, A2B, A1 and A3 receptors were determined by quantification of cAMP, being the second messenger for adenosine receptors.
(§2) Obtained raw data were normalized against the inhibitor control and the neural control (DMSO) and the normalized data were fitted using GeneData software.
A general note: TR-FRET usually uses a lanthanide donor and a delayed reading to cut background.

A further experiment concerns the target T2, human A1 receptor (Homo sapiens, UniProt P30542).
T2 construct: expressed in transfected cells; host or cells: CHO
T2 sequence (P30542 1-326): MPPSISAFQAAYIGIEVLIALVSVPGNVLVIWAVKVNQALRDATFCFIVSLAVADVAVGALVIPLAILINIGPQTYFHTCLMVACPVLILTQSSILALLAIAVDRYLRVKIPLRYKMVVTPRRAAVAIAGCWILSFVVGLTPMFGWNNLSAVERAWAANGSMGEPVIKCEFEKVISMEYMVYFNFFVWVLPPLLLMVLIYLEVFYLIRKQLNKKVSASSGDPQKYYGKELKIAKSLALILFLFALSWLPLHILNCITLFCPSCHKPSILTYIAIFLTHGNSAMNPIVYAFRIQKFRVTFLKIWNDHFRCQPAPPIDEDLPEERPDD
The experiment is described as follows: cAMP HTRF functional assay, recombinant CHO cells expressing human A1 receptor, forskolin and agonist CPA. As to the method: as §1
(§3) For human A1 and A3 receptors, recombinant CHO cells, expressing either A1 or A3-receptor, were used. As both receptors couple to Gi proteins, the assay protocol was adapted:
(§4) Cells were seeded into 384-well plates, forskolin, test compounds and agonists (CPA for A1- and IB-MECA for A3-receptor) were added. After 30 min incubation, HTRF reagents (cAMP dynamic 2, Cis Bio) were added and the cellular cAMP levels were determined using the ENVISION (Perkin Elmer) plate reader.
as §2

The target in another experiment is T3, human A3 receptor (Homo sapiens, UniProt P0DMS8).
T3 construct: expressed in transfected cells; host or cells: CHO
T3 sequence (P0DMS8 1-318): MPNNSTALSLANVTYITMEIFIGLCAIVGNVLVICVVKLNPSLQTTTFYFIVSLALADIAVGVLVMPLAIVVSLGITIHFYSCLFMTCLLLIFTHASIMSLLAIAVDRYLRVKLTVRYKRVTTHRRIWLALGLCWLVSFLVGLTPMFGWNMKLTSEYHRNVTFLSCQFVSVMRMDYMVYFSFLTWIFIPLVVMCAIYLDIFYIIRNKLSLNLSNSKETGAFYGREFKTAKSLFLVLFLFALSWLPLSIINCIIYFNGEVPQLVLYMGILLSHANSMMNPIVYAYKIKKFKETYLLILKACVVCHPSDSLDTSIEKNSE
The experiment is described as follows: cAMP HTRF functional assay, recombinant CHO cells expressing human A3 receptor, forskolin and agonist IB-MECA. As to the method:
as §1, §3, §4, §2

The next experiment concerns the target T4, A2B receptors (Homo sapiens, UniProt P29275).
T4 sequence (P29275 1-332): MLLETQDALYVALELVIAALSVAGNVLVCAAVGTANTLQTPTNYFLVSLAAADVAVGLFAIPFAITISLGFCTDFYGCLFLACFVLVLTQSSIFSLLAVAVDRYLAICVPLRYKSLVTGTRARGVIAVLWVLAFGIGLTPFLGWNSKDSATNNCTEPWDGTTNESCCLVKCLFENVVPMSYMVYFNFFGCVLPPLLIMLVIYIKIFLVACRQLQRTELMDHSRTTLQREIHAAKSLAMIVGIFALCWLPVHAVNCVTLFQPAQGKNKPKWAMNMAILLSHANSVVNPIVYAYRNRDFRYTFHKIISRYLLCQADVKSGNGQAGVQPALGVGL
The experiment is described as follows: cAMP HTRF functional assay, recombinant HEK293 cells expressing human A2B receptor, agonist NECA. Further details: expressed in transfected cells; host or cells: HEK293. As to the method: as §1, §2

[1] abbreviates: recombinant HEK293 cells, cAMP, agonist NECA.

pIC50: −log10 of the molar value. Like-named read-outs stand apart in the source and are kept apart here. Some results are limits rather than exact numbers.

T1 sequence (P29274 whole entry): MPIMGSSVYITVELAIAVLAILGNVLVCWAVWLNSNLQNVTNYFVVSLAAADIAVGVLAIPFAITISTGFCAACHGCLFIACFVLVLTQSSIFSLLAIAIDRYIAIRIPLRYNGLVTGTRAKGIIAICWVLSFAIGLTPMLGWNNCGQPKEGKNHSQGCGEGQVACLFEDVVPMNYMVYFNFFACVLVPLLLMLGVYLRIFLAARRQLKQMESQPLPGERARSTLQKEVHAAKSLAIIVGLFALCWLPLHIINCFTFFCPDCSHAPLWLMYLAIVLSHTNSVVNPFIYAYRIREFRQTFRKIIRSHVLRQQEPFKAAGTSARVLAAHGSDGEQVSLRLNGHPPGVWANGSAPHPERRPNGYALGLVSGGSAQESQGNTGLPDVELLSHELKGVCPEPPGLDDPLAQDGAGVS

On to “4-hydroxy-N-[8-methoxy-5-(2-methylphenyl)quinoxalin-2-yl]-4-methylpiperidine-1-carboxamide [compound 29]”, for which the pIC50 (commonly the IC50 on a negative log10 scale, so that one unit is a factor of ten) is over 7.00 at human A2A receptor (setting [1]), under 6.00 on human A1 receptor, under 6.00 at human A3 receptor and over 6.00 on A2B receptors (setting [1]).
With `COc1ccc(C2CCOCC2)c2ncc(NC(=O)c3coc(C)n3)nc12` [compound 16], the pIC50 on human A2A receptor was over 7.00; on human A1 receptor it was under 6.00; on human A3 receptor, under 6.00; on A2B receptors, under 6.00.
On to `COc1ccc(-c2ccccc2)c2ncc(NC(=O)c3cnc(C)s3)nc12` [compound 48], for which the negative-log IC50 (pIC50) is over 8.00 at human A2A receptor, over 6.00 on human A1 receptor, under 6.00 on human A3 receptor and over 7.00 at A2B receptors.
As for `COc1ccc(-c2ccccc2)c2ncc(NC(=O)c3cnc(C)o3)nc12` [compound 105, N-(8-methoxy-5-phenylquinoxalin-2-yl)-2-methyl-1,3-oxazole-5-carboxamide], the pIC50 is over 8.00 at human A2A receptor, over 6.00 at human A1 receptor, over 6.00 at human A3 receptor and over 7.00 at A2B receptors.
Regarding `COc1ncc(C2CCOCC2)c2ncc(NC(=O)C3CC3)nc12` [compound 106, Cyclopropanecarboxylic acid [5-methoxy-8-(tetrahydro-pyran-4-yl)-pyrido[3,4-b]pyrazin-3-yl]-amide], the pIC50 at human A2A receptor is over 8.00; on human A1 receptor, over 6.00; at human A3 receptor, under 6.00; at A2B receptors it was over 7.00.
For the compound `COCCOCc1cccc(-c2ccc(OC)c3nc(NC(=O)N4CCC(C)(O)CC4)cnc23)c1` [compound 118, 4-hydroxy-N-(8-methoxy-5-{3-[(2-methoxyethoxy)methyl]phenyl}quinoxalin-2-yl)-4-methylpiperidine-1-carboxamide], the pIC50 at human A2A receptor is over 7.00; at human A1 receptor, under 6.00; at human A3 receptor, under 6.00; on A2B receptors, under 6.00.
For the compound `COc1ccc(-c2ccccc2F)c2ncc(NC(=O)C3CC3)nc12` [compound 120, N-[5-(2-fluorophenyl)-8-methoxyquinoxalin-2-yl]cyclopropanecarboxamide], the pIC50 is over 8.00 at human A2A receptor, over 6.00 at human A1 receptor, over 6.00 at human A3 receptor and over 7.00 on A2B receptors.
With `COc1ccc(-c2cccnc2)c2ncc(NC(=O)C3CC3)nc12` [compound 121, N-[8-methoxy-5-(pyridin-3-yl)quinoxalin-2-yl]cyclopropanecarboxamide], the negative logarithm of the IC50 (pIC50) was over 7.00 at human A2A receptor, over 6.00 at human A1 receptor, over 6.00 on human A3 receptor and over 6.00 on A2B receptors.
Consider `COc1ccc(N2CCCCCC2)c2ncc(NC(=O)C3CC3)nc12` [compound 122, N-[5-(azepan-1-yl)-8-methoxyquinoxalin-2-yl]cyclopropanecarboxamide], for which the pIC50 on human A2A receptor was over 7.00; on human A1 receptor, under 6.00; on human A3 receptor, under 6.00.
Regarding `COc1ccc(-c2cccc(F)c2F)c2ncc(NC(=O)C3CC3)nc12` [compound 123, N-[5-(2,3-difluorophenyl)-8-methoxyquinoxalin-2-yl]cyclopropanecarboxamide], the pIC50 was over 8.00 on human A2A receptor, over 6.00 at human A1 receptor, over 6.00 on human A3 receptor and over 7.00 at A2B receptors.
As for `COc1ccc(-c2cc(F)ccc2F)c2ncc(NC(=O)C3CC3)nc12` [compound 124, N-[5-(2,5-difluorophenyl)-8-methoxyquinoxalin-2-yl]cyclopropanecarboxamide], the pIC50 on human A2A receptor is over 8.00; on human A1 receptor, over 6.00; at human A3 receptor, over 6.00; on A2B receptors it was under 6.00.
For `COc1ccc(-c2ccc(F)cc2)c2ncc(NC(=O)C3CC3)nc12` [compound 126, N-[5-(4-fluorophenyl)-8-methoxyquinoxalin-2-yl]cyclopropanecarboxamide], the pIC50 at human A2A receptor was over 8.00; at human A1 receptor, over 6.00; on human A3 receptor, over 6.00; on A2B receptors it was over 7.00.
For the compound `COc1ccc(-c2cc(F)ccc2F)c2ncc(NC(=O)c3cnc(C)o3)nc12` [compound 128, N-[5-(2,5-difluorophenyl)-8-methoxyquinoxalin-2-yl]-2-methyl-1,3-oxazole-5-carboxamide], the values for the negative logarithm of the IC50 (pIC50) at human A2A receptor, on human A1 receptor and at human A3 receptor were over 7.00, under 6.00 and over 6.00, respectively.
As for `COc1ccc(-c2ccc(F)cc2)c2ncc(NC(=O)c3cnc(C)o3)nc12` [compound 131, N-[5-(4-fluorophenyl)-8-methoxyquinoxalin-2-yl]-2-methyl-1,3-oxazole-5-carboxamide], the pIC50 at human A2A receptor was over 8.00; at human A1 receptor, over 6.00; at human A3 receptor it was over 6.00; at A2B receptors, over 7.00.
As to `COc1ccc(C2=CCOCC2)c2ncc(NC(=O)c3cnc(C)s3)nc12` [compound 134, N-[5-(3,6-dihydro-2H-pyran-4-yl)-8-methoxyquinoxalin-2-yl]-2-methyl-1,3-thiazole-5-carboxamide], the pIC50 at human A2A receptor is over 8.00; on human A1 receptor, over 6.00; on human A3 receptor it was under 6.00; on A2B receptors it was over 7.00.
Consider `COc1ccc(C2=CCOCC2)c2ncc(NC(=O)c3csc(N)n3)nc12` [compound 139, 2-amino-N-[5-(3,6-dihydro-2H-pyran-4-yl)-8-methoxyquinoxalin-2-yl]-1,3-thiazole-4-carboxamide], for which the pIC50 is over 7.00 at human A2A receptor, under 6.00 at human A1 receptor and under 6.00 at A2B receptors.
Consider `COc1ccc(C2=CCOCC2)c2ncc(NC(=O)c3ncc(C4CCOC4)s3)nc12` (stereo not drawn) [compound 140, N-[5-(3,6-dihydro-2H-pyran-4-yl)-8-methoxyquinoxalin-2-yl]-5-(oxolan-3-yl)-1,3-thiazole-2-carboxamide], for which the negative-log IC50 (pIC50) was over 8.00 at human A2A receptor, over 6.00 at human A1 receptor and over 7.00 on A2B receptors.
For `COc1ccc(C2=CCOCC2)c2ncc(NC(=O)c3coc(CN)c3)nc12` [compound 142, 5-(aminomethyl)-N-[5-(3,6-dihydro-2H-pyran-4-yl)-8-methoxyquinoxalin-2-yl]furan-3-carboxamide], in that order: over 8.00, under 6.00 and under 6.00.
Turning to `CCOC(=O)c1nnc(NC(=O)Nc2cnc3c(C4=CCOCC4)ccc(OC)c3n2)s1` [compound 143, ethyl 5-({[5-(3,6-dihydro-2H-pyran-4-yl)-8-methoxyquinoxalin-2-yl]carbamoyl}amino)-1,3,4-thiadiazole-2-carboxylate], the pIC50 on human A2A receptor was over 7.00; at human A1 receptor, under 6.00; at A2B receptors, under 6.00.
Take `COc1ccc(-c2ccccc2)c2ncc(NC(=O)C3(C(=O)N(C)C)CC3)nc12` [compound 149, N′1-(8-methoxy-5-phenylquinoxalin-2-yl)-N1,N1-dimethylcyclopropane-1,1-dicarboxamide]: the pIC50 is over 7.00 at human A2A receptor, under 6.00 at human A1 receptor and over 6.00 at human A3 receptor.
As for `COCCOc1cccc(-c2ccc(OC)c3nc(NC(=O)c4nnc(C)s4)cnc23)c1` [compound 152, N-{8-methoxy-5-[3-(2-methoxyethoxy)phenyl]quinoxalin-2-yl}-5-methyl-1,3,4-thiadiazole-2-carboxamide], the pIC50 is over 7.00 at human A2A receptor and under 6.00 on human A3 receptor.
As for `COc1ccc(C2=CCOCC2)c2ncc(NC(=O)c3cnc[nH]3)nc12` [compound 159, N-[5-(3,6-dihydro-2H-pyran-4-yl)-8-methoxyquinoxalin-2-yl]-1H-imidazole-5-carboxamide], the pIC50 at human A2A receptor is over 7.00; at human A1 receptor it was over 6.00; on A2B receptors, over 7.00.
With `COc1ccc(-c2ccccc2)c2ncc(NC(=O)c3cnc[nH]3)nc12` [compound 160, N-(8-methoxy-5-phenylquinoxalin-2-yl)-1H-imidazole-5-carboxamide], the pIC50 at human A2A receptor is over 7.00; at human A1 receptor, under 6.00; on A2B receptors, over 7.00.

These data come from US11192899B2 (MERCK PATENT GMBH, priority 2017, dated 2021).
